What is called IC50 is the midpoint of a concentration-inhibition curve. A low value points to greater potency.

This assay relates to SH-SY5Y. Briefly: Inhibitory concentration against Human SH-SY5Y neuroblastoma cells. The format is functional, cell-based.
`COc1ccc(/C=C\c2cc(OC)c(OC)c(OC)c2)cc1N(CCCl)CCCl` gave an IC50 of 860 nM. To `COc1ccc(/C=C\c2cc(OC)c(OC)c(OC)c2)cc1O` [COMBRETASTATIN A4] belongs 1.5 nM; to `COc1ccc(/C=C\c2cc(OC)c(OC)c(OC)c2)cc1OCCN(CCCl)CCCl`, 230 nM.

For the compound `COc1ccc(/C=C\c2cc(OC)c(OC)c(OC)c2)cc1OC(=O)CCCc1ccc(N(CCCl)CCCl)cc1`, the midpoint of inhibition, the IC50, lay at 0.64 nM. Compound `COc1ccc(/C=C\c2cc(OC)c(OC)c(OC)c2)cc1N(CCO)CCO` had an IC50 above 10000 nM.

The record behind these values is ChEMBL document CHEMBL1142751, “Synthesis and biological activity of mustard derivatives of combretastatins” (Bioorg Med Chem Lett, 2005).
